Values of other authors in patent US20210322384A1, “Method of Treatment for Ketamine Infusion” (Eleusis therapeutics us, inc., priority 2018, published 2021).
Like-named read-outs stand apart in the source and are kept apart here.

How the values were obtained:
[1] = test system: patients; conditions: for improvement in MADRS score relative to standard antidepressants alone: plus standard antidepressants
[2] = test system: patients; conditions: current state of the art ketamine treatments; industry standard

Row | SMILES | reduction in MADRS score relative to control group ([1]; after 25 days) | improvement in MADRS score relative to standard antidepressants alone ([1]; at 24 hours after intranasal 84 mg) | improvement in MADRS score relative to standard antidepressants alone ([1]; at four hours after intranasal 84 mg) | side effects of nasal spray protocol ([1]; intranasal 84 mg aerosol spray) | response rate in alleviating depression symptoms [2]
1 | CN[C@]1(c2ccccc2Cl)CCCCC1=O [esketamine] | did not result in any significant reduction | significantly greater improvement | significantly greater improvement | significant side effects | 
2 | CNC1(c2ccccc2Cl)CCCCC1=O (centres unmarked) [ketamine] |  |  |  |  | ~70%
